Results: patent US20210161135A1, “WEED CONTROL FROM APPLICATIONS OF PYRIDINE CARBOXYLIC ACID HERBICIDES AND 4-HYDROXYPHENYL-PYRUVATE DIOXYGENASE (HPPD) INHIBITORS” (Dow AgroSciences LLC, priority 2018, published 2021)

Key:
Assay in all cases: Postemergence herbicidal activity, greenhouse, visual injury after 20-22 d
Format in all cases: in vivo
[1] = test system: barnyardgrass (Echinochloa crus-galli, ECHCG); settings: two trials
Procedure: (§1) Seeds of the desired test plant species were planted in Sun Gro MetroMix® 306 planting mixture, which typically has a pH of 6.0 to 6.8 and an organic matter content of about 30 percent, in plastic pots with a surface area of 103.2 square centimeters (cm^2). When required to ensure good germination and healthy plants, a fungicide treatment and/or other chemical or physical treatment was applied. The plants were grown for 7-36 days (d) in a greenhouse with an approximate 14-hour (h) photoperiod which was maintained at about 23° C. during the day and 22° C. during the night. Nutrients and water were added on a regular basis and supplemental lighting was provided with overhead metal halide 1000-Watt lamps as necessary. The plants were employed for testing when they reached the second or third true leaf stage.
(§2) An emulsifiable concentrate (EC) formulation containing Compound 1 at 100 gai/L was prepared by combining Compound 1 with 1-butyl-2-pyrrolidinone (Tamisolve NxG; 360.5 g/L), benzyl acetate (544.6 g/L) and Agnique MBL 520L surfactant (52.9 g/L). […] The concentrated stock solutions were diluted with an aqueous mixture of 1.5% v/v of Agri-dex crop oil concentrate to provide the appropriate application rates. Compound requirements are based upon a 12 milliliter (mL) application volume at a rate of 187 liters per hectare (L/ha). Spray solutions of the experimental compound mixtures were prepared by adding the stock solutions to the appropriate amount of dilution solution to form a 12 mL spray solution in two-way combinations. Formulated compounds were applied to the plant material with an overhead Mandel track sprayer equipped with 8002E nozzles calibrated to deliver 187 L/ha over an application area of 0.503 square meters (m^2) at a spray height of […] above average plant canopy. Control plants were sprayed in the same manner with the solvent blank. Application rates for component (a) are in g ai/ha, and application rates for component (b) are in g ai/ha.
(§3) The treated plants and control plants were placed in a greenhouse as described above and watered by sub-irrigation to prevent wash-off of the test compounds. After 20-22 d, the condition of the test plants as compared with that of the control plants was determined visually and scored on a scale of 0 to 100 percent where 0 corresponds to no injury and 100 corresponds to complete kill. […] The Colby method was used to determine the herbicidal effects expected from the mixtures.

[2] = test system: common chickweed (Stellaria media, STEME); settings: two trials
Procedure: as §1, §2, §3

[3] = test system: common lambsquarters (Chenopodium album L., CHEAL)
Procedure: as §1, §2, §3

[4] = test system: giant foxtail (Setaria faberi, SETFA)
Procedure: as §1, §2, §3

[5] = test system: grain sorghum (Sorghum vulgare, SORVU); settings: two trials
Procedure: as §1, §2, §3

[6] = test system: ivyleaf morningglory (Ipomoea hederacea, IPOHE); settings: two trials
Procedure: as §1, §2, §3

[7] = test system: kochia (Kochia scoparia, KCHSC)
Procedure: as §1, §2, §3

[8] = test system: large crabgrass (Digitaria sanguinalis, DIGSA); settings: two trials
Procedure: as §1, §2, §3

maize (Zea mays, ZEAMX) = settings: two trials
Procedure: as §1, §2, §3

[9] = test system: pigweed (Amaranthus retroflexus, AMARE); settings: two trials
Procedure: as §1, §2, §3

[10] = test system: poinsettia (Euphorbia heterophylla, EPHHL)
Procedure: as §1, §2, §3

[11] = test system: rice (Oryza sativa, ORYSA); settings: two trials
Procedure: as §1, §2, §3

[12] = test system: soybean (Glycine max, GLXMA); settings: two trials
Procedure: as §1, §2, §3

[13] = test system: spring rape (Brassica napus, BRSNN)
Procedure: as §1, §2, §3

[14] = test system: sunflower (Helianthus annuus, HELAN); settings: two trials
Procedure: as §1, §2, §3

[15] = test system: thistle (Cirsium arvense CIRAR)
Procedure: as §1, §2, §3

[16] = test system: velvetleaf (Abutilon theophrasti, ABUTH)
Procedure: as §1, §2, §3

[17] = test system: wild buckwheat (Polygonum convolvulus, POLCO)
Procedure: as §1, §2, §3

[18] = test system: wild oat (Avena fatua, AVEFA); settings: two trials
Procedure: as §1, §2, §3

[19] = test system: wild pansy (Viola tricolor, VIOTR)
Procedure: as §1, §2, §3

[20] = test system: winter rape (Brassica napus, BRSNW); settings: two trials
Procedure: as §1, §2, §3

[21] = test system: winter wheat (Triticum aestivum, TRZAW); settings: two trials
Procedure: as §1, §2, §3

[22] = HPPD inhibitor 35 g ai/ha alone
[23] = HPPD inhibitor 35 g ai/ha alone, two trials
[24] = Compound 1 5 g ai/ha alone, Tables 4-5
[25] = Compound 1 5 g ai/ha alone, two trials
[26] = Compound 1 10 g ai/ha alone, Tables 4-5
[27] = Compound 1 10 g ai/ha alone, two trials

## CS(=O)(=O)c1cc(C(F)(F)F)ccc1C(=O)c1cnoc1C1CC1 [Isoxaflutole, (5-cyclopropyl-4-isoxazolyl)[2-(methylsulfonyl)-4-(trifluoromethyl)phenyl]methanone]
[1]; [22]
  Effect (% visual injury), Obs: 25%
[2]; [22]
  Effect (% visual injury), Obs: 10%
[3]; [23]
  Effect (% visual injury), Obs: 99%
[4]; [23]
  Effect (% visual injury), Obs: 97%
[5]; [22]
  Effect (% visual injury), Obs: 0%
[6]; [22]
  Effect (% visual injury), Obs: 70%
[7]; [23]
  Effect (% visual injury), Obs: 90%
[8]; [22]
  Effect (% visual injury), Obs: 50%
Maize (Zea mays, ZEAMX); [22]
  Effect (% visual injury), Obs: 0%
[9]; [22]
  Effect (% visual injury), Obs: 95%
[10]; [23]
  Effect (% visual injury), Obs: 43%
[11]; [22]
  Effect (% visual injury), Obs: 30%
[12]; [22]
  Effect (% visual injury), Obs: 75%
[13]; [23]
  Effect (% visual injury), Obs: 85%
[14]; [22]
  Effect (% visual injury), Obs: 90%
[15]; [23]
  Effect (% visual injury), Obs: 75%
[16]; [23]
  Effect (% visual injury), Obs: 45%
[17]; [23]
  Effect (% visual injury), Obs: 10%
[18]; [22]
  Effect (% visual injury), Obs: 60%
[19]; [23]
  Effect (% visual injury), Obs: 45%
[20]; [22]
  Effect (% visual injury), Obs: 60%
[21]; [22]
  Effect (% visual injury), Obs: 15%

## CS(=O)(=O)c1ccc(C(=O)C2=C(Sc3ccccc3)C3CCC(C3)C2=O)c(Cl)c1 (stereo not drawn) [Benzobicyclon, 3-[2-chloro-4-(methylsulfonyl)benzoyl]-4-(phenylthio)bicyclo[3.2.1]oct-3-en-2-one]
[3]; Benzobicyclon 50 g ai/ha alone
  Effect (% visual injury), Obs: 100%
[4]; Benzobicyclon 50 g ai/ha alone
  Effect (% visual injury), Obs: 0%
[7]; Benzobicyclon 50 g ai/ha alone
  Effect (% visual injury), Obs: 10%
[10]; Benzobicyclon 50 g ai/ha alone
  Effect (% visual injury), Obs: 5%
[13]; Benzobicyclon 50 g ai/ha alone
  Effect (% visual injury), Obs: 0%
[15]; Benzobicyclon 50 g ai/ha alone
  Effect (% visual injury), Obs: 20%
[16]; Benzobicyclon 50 g ai/ha alone
  Effect (% visual injury), Obs: 25%
[17]; Benzobicyclon 50 g ai/ha alone
  Effect (% visual injury), Obs: 0%
[19]; Benzobicyclon 50 g ai/ha alone
  Effect (% visual injury), Obs: 10%

## Nc1c(F)c(-c2ccc3cc[nH]c3c2F)nc(C(=O)O)c1Cl [Compound 1]
[1]; Compound 1 5 g ai/ha alone
  Effect (% visual injury), Obs: 20%
[1]; Compound 1 10 g ai/ha alone
  Effect (% visual injury), Obs: 60%
[2]; Compound 1 5 g ai/ha alone
  Effect (% visual injury), Obs: 70%
[2]; Compound 1 10 g ai/ha alone
  Effect (% visual injury), Obs: 70%
[3]; [24]
  Effect (% visual injury), Obs: 90%
[3]; [25]
  Effect (% visual injury), Obs: 90%
[3]; [26]
  Effect (% visual injury), Obs: 95%
[3]; [27]
  Effect (% visual injury), Obs: 98%
[4]; [24]
  Effect (% visual injury), Obs: 50%
[4]; [25]
  Effect (% visual injury), Obs: 30%
[4]; [26]
  Effect (% visual injury), Obs: 75%
[4]; [27]
  Effect (% visual injury), Obs: 63%
[5]; Compound 1 5 g ai/ha alone
  Effect (% visual injury), Obs: 0%
[5]; Compound 1 10 g ai/ha alone
  Effect (% visual injury), Obs: 50%
[6]; Compound 1 5 g ai/ha alone
  Effect (% visual injury), Obs: 10%
[6]; Compound 1 10 g ai/ha alone
  Effect (% visual injury), Obs: 10%
[7]; [24]
  Effect (% visual injury), Obs: 65%
[7]; [25]
  Effect (% visual injury), Obs: 63%
[7]; [26]
  Effect (% visual injury), Obs: 75%
[7]; [27]
  Effect (% visual injury), Obs: 68%
[8]; Compound 1 5 g ai/ha alone
  Effect (% visual injury), Obs: 0%
[8]; Compound 1 10 g ai/ha alone
  Effect (% visual injury), Obs: 10%
Maize (Zea mays, ZEAMX); Compound 1 5 g ai/ha alone
  Effect (% visual injury), Obs: 0%
Maize (Zea mays, ZEAMX); Compound 1 10 g ai/ha alone
  Effect (% visual injury), Obs: 0%
[9]; Compound 1 5 g ai/ha alone
  Effect (% visual injury), Obs: 75%
[9]; Compound 1 10 g ai/ha alone
  Effect (% visual injury), Obs: 97%
[10]; [24]
  Effect (% visual injury), Obs: 75%
[10]; [25]
  Effect (% visual injury), Obs: 86%
[10]; [26]
  Effect (% visual injury), Obs: 100%
[10]; [27]
  Effect (% visual injury), Obs: 99%
[11]; Compound 1 5 g ai/ha alone
  Effect (% visual injury), Obs: 0%
[11]; Compound 1 10 g ai/ha alone
  Effect (% visual injury), Obs: 10%
[12]; Compound 1 5 g ai/ha alone
  Effect (% visual injury), Obs: 95%
[12]; Compound 1 10 g ai/ha alone
  Effect (% visual injury), Obs: 100%
[13]; [24]
  Effect (% visual injury), Obs: 50%
[13]; [25]
  Effect (% visual injury), Obs: 50%
[13]; [26]
  Effect (% visual injury), Obs: 80%
[13]; [27]
  Effect (% visual injury), Obs: 80%
[14]; Compound 1 5 g ai/ha alone
  Effect (% visual injury), Obs: 90%
[14]; Compound 1 10 g ai/ha alone
  Effect (% visual injury), Obs: 90%
[15]; [24]
  Effect (% visual injury), Obs: 50%
[15]; [25]
  Effect (% visual injury), Obs: 50%
[15]; [26]
  Effect (% visual injury), Obs: 60%
[15]; [27]
  Effect (% visual injury), Obs: 60%
[16]; [24]
  Effect (% visual injury), Obs: 50%
[16]; [25]
  Effect (% visual injury), Obs: 50%
[16]; [26]
  Effect (% visual injury), Obs: 50%
[16]; [27]
  Effect (% visual injury), Obs: 55%
[17]; [24]
  Effect (% visual injury), Obs: 40%
[17]; [25]
  Effect (% visual injury), Obs: 53%
[17]; [26]
  Effect (% visual injury), Obs: 40%
[17]; [27]
  Effect (% visual injury), Obs: 58%
[18]; Compound 1 5 g ai/ha alone
  Effect (% visual injury), Obs: 0%
[18]; Compound 1 10 g ai/ha alone
  Effect (% visual injury), Obs: 0%
[19]; [24]
  Effect (% visual injury), Obs: 10%
[19]; [25]
  Effect (% visual injury), Obs: 8%
[19]; [26]
  Effect (% visual injury), Obs: 15%
[19]; [27]
  Effect (% visual injury), Obs: 13%
[20]; Compound 1 5 g ai/ha alone
  Effect (% visual injury), Obs: 40%
[20]; Compound 1 10 g ai/ha alone
  Effect (% visual injury), Obs: 45%
[21]; Compound 1 5 g ai/ha alone
  Effect (% visual injury), Obs: 0%
[21]; Compound 1 10 g ai/ha alone
  Effect (% visual injury), Obs: 0%
